One experiment addresses T1, H1 receptor (Cavia porcellus, UniProt P31389).
T1 construct: A piece of ileum, about 20 cm in length, is removed and cut into 2 cm pieces; from tissue; host or cells: ileum of male Hartley guinea pigs
The experiment can be described thus: Histamine (H1) antagonism in guinea pig ileum. Format: cell-based. The note with it: read-out: H1 Receptor Antagonism, pA2, in vitro (converted). The method, then: Male Hartley guinea pigs, weighing 200-450 grams, are sacrificed by CO2 asphyxiation. A piece of ileum, about 20 cm in length, is removed and cut into 2 cm pieces. Each ileum piece is placed in an organ bath at 37° C. containing Tyrode's solution and is constantly aerated with 95% O2 /5%CO2. Tyrode's solution has the composition: NaCl 136.9 mM, KCl […], CaCl2 1.8 mM, NaH2 PO4 0.42 mM, NaHCO3 11.9 mM, and dextrose 5.55 mM. Contractions are measured with an isometric transducer (Grass FTO3C), and are recorded on a polygraph recorder and/or a computer. The ileum strips are loaded with 1.0 grams of tension and allowed to equilibrate for a minimum of 30 minutes before starting the experiments.
The potency of the antagonism is determined by the magnitude of the shift and is expressed as a pA2 value which is the negative logarithm of the molar concentration of antagonist which produces a two-fold shift of the dose response curve to the right. The pA2 value is calculated by using Schild analysis. O. Arunlakshana and H. O. Schild, Br. J. Pharmacol Chemother. 14, 48-58 (1958).
Table 1 presents pA2 values by the method of Example 93 which indicate potency of H1 receptor antagonism and IC50 values by the method of Example 95 which indicates NK1 receptor binding affinity for representative compounds of the present invention.

The target of a further experiment is T2, NK1 receptor (Cavia porcellus, UniProt P30547).
T2 construct: as evaluated in guinea pig lungs (Keystone Biologicals, Cleveland, Ohio); tissue Keystone Biologicals, Cleveland, Ohio; host or cells: guinea pig lung membranes
The experiment can be described thus: Antagonism of iodinated tachykinin (substance P) binding to NK1 receptors in guinea pig lungs. The note with it: read-out: NK1 Receptor Binding Affinity, IC50. Here is the method:
Antagonism of iodinated tachykinin binding to NK1 receptors by putative antagonists
One skilled in the art can measure the NK1 receptor affinity of proposed tachykinin antagonists as evaluated in guinea pig lungs (Keystone Biologicals, Cleveland, Ohio). Tissues or cells are homogenized with a Polytron in 15 volumes of 50 mM Tris-HCl buffer (pH 7.4, […]) and centrifuged. The pellet is resuspended in Tris-HCl buffer and centrifuged; the pellet is washed twice by resuspension. The final pellet is resuspended at a concentration of 40 mg/ml incubation buffer and remains at room temperature for at least 15 min prior to use. […] Incubations are performed at room temperature for 90 min; binding is terminated by addition of 50 mM Tris-HCl buffer (pH 7.4, […]) and filtration under vacuum through GF/B filters presoaked with 0.1% polyethyleneimine. Filter bound radioactivity is quantitated in a gamma counter. […] IC50 values (concentration required to inhibit 50% of receptor binding) are generated for each of the test compounds by nonlinear regression using an iterative curve fitting program (GraphPAD Inplot, San Diego, Calif.).

T2 sequence (P30547 whole entry): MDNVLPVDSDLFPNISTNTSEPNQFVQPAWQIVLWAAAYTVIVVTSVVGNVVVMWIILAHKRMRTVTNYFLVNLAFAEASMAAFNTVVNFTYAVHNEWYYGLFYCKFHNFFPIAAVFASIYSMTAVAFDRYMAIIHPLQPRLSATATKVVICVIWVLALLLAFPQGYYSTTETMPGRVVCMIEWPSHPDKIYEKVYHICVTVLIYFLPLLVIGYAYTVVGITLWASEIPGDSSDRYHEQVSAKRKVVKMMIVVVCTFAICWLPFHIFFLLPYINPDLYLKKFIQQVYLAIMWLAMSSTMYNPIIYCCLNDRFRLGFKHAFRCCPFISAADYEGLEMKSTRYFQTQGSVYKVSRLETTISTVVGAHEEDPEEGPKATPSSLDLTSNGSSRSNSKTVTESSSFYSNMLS
T1 sequence (P31389 whole entry): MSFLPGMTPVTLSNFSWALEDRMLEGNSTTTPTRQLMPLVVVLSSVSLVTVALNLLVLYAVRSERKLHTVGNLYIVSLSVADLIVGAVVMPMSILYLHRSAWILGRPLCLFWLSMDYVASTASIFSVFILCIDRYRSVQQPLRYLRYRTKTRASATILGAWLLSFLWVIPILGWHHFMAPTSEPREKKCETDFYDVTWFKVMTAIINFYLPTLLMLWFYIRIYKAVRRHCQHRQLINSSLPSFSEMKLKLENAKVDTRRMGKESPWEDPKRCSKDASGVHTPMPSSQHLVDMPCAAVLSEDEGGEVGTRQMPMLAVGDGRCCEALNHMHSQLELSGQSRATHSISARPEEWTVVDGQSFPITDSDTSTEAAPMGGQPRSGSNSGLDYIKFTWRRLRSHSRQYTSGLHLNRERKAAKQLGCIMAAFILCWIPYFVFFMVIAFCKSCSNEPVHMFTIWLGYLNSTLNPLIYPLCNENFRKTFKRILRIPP

On to `COc1cc(C(=O)N2CCC(CCN3CCC(C(=O)c4nc5ccccc5n4Cc4ccccn4)CC3)(c3ccc(Cl)c(Cl)c3)C2)cc(OC)c1OC` (stereo not shown) [Example 33, 1-(3,4,5-Trimethoxy-benzoyl)-3-[2-[4-[1-(pyrid-2-ylmethyl)-1 H-benzoimidazole-2-carbonyl]-piperidin-1-yl]-ethyl]-3-(3,4-dichloro-phenyl)-pyrrolidine], for which, on H1 receptor, the Kb was 0.0417 µM. In addition, at NK1 receptor, the IC50 came to 0.038 µM.
The like results for `COc1cc(C(=O)N2CCC(CCN3CCC(C(=O)c4nc5ccccc5n4Cc4ccccn4)CC3)(c3ccccc3)C2)cc(OC)c1OC` (stereo not shown) [Example 37, 1-(3,4,5-Trimethoxy-benzoyl)-3-[2-[4-[1-(pyrid-2-ylmethyl)-1 H-benzoimidazole-2-carbonyl]-piperidin-1-yl]-ethyl]-3-phenyl-pyrrolidine] were, in that order, 0.0251 µM and 0.017 µM.
The like results for `COc1cc(C(=O)N2CCC(CCN3CCC(C(=O)c4nc5ccccc5n4Cc4ccc(C(=O)O)cc4)CC3)(c3ccccc3)C2)cc(OC)c1OC` (stereo not shown) [Example 39, 1-(3,4,5-Trimethoxy-benzoyl)-3-[2-[4-[1-(4-carboxy-benzyl)-1 H-benzoimidazole-2-carbonyl]-piperidin-1-yl]-ethyl]-3-phenyl-pyrrolidine] were, in that order, 0.891 µM and 0.029 µM.
The like results for `CCOCCn1c(C(=O)C2CCN(CCC3(c4ccccc4)CCN(C(=O)c4cc(OC)c(OC)c(OC)c4)C3)CC2)nc2ccccc21` (stereo not shown) [Example 40, 1-(3,4,5-Trimethoxy-benzoyl)-3-[2-[4-[1-(2-ethoxy-ethyl)-1 H-benzoimidazole-2-carbonyl]-piperidin-1-yl]-ethyl]-3-phenyl-pyrrolidine] were, in that order, 0.0417 µM and 0.024 µM.
Turning to `COc1ccc(C2(CCN3CCC(C(=O)c4nc5ccccc5n4Cc4ccc(C(=O)O)cc4)CC3)CCN(C(=O)c3cc(OC)c(OC)c(OC)c3)C2)cc1OC` (stereo not shown) [Example 43], the Kb at H1 receptor is 6.76 µM. The IC50 on NK1 receptor turned out to be 0.048 µM.
For `COc1cc(C(=O)N2CCC(CCN3CCC(C(=O)c4nc5ccccc5n4Cc4ccco4)CC3)(c3ccccc3)C2)cc(OC)c1OC` (stereo not shown) [Example 44, 1-(3,4,5-Trimethoxy-benzoyl)-3-[2-[4-[1-(fur-2-ylmethyl)-1 H-benzoimidazole-2-carbonyl]-piperidin-1-yl]-ethyl]-3-phenyl-pyrrolidine], in that order: 0.0631 µM and 0.013 µM.
For `COc1cc(C(=O)N2CCC(CCN3CCC(C(=O)c4nc5ccccc5n4CCOCc4ccco4)CC3)(c3ccccc3)C2)cc(OC)c1OC` (stereo not shown) [Example 45, 1-(3,4,5-Trimethoxy-benzoyl)-3-[2-[4-[1-(2-fur-2-ylmethoxy-ethyl)-1 H-benzoimidazole-2-carbonyl]-piperidin-1-yl]-ethyl]-3-phenyl-pyrrolidine], the Kb at H1 receptor is 0.0355 µM. The IC50 on NK1 receptor is 0.009 µM.
The like results for `COc1cc(CN2CCC(CCN3CCC(O)(c4nc5ccccc5n4Cc4ccc(F)cc4)CC3)(Cc3ccccc3)C2=O)cc(OC)c1OC` (stereo not shown) [Example 53, 1-(3,4,5-Trimethoxy-benzyl)-3-[2-[4-[1-(4-fluoro-benzyl)-1H-benzoimidazol-2-yl]-4-hydroxy-piperidin-1-yl]-ethyl]-3-(phenylmethyl)-2-oxo-pyrrolidine] were, in that order, 0.204 µM and 0.191 µM.
Take `COc1cc(CN2CCC(CCN3CCC(O)(c4nc5ccccc5n4Cc4ccc(F)cc4)CC3)(Cc3ccc(Cl)c(Cl)c3)C2=O)cc(OC)c1OC` (stereo not shown) [Example 54, 1-(3,4,5-Trimethoxy-benzvl)-3-[2-[4-[1-(4-fluoro-benzyl)-1H-benzoimidazol-2-yl]-4-hydroxy-piperidin-1-yl]-ethyl]-3-(3,4-dichloro-phenylmethyl)-2-oxo-pyrrolidine]: the Kb at H1 receptor was 0.479 µM. The IC50 at NK1 receptor is 0.269 µM.
On to `COc1ccc(CC2(CCN3CCC(O)(c4nc5ccccc5n4Cc4ccc(F)cc4)CC3)CCN(Cc3cc(OC)c(OC)c(OC)c3)C2=O)cc1OC` (stereo not shown) [Example 55, 1-(3,4,5-Trimethoxy-benzyl)-3-[2-[4-[1-(4-fluoro-benzyl)-1H-benzoimidazol-2-yl]-4-hydroxy-piperidin-1-yl]-ethyl]-3-(3,4-dimethoxy-phenylmethyl)-2-oxo-pyrrolidine], for which the Kb at H1 receptor is 0.912 µM. For the same compound, the IC50 at NK1 receptor came to 0.385 µM.
`COc1cc(CN2CCC(CCN3CCC(O)(c4nc5ccccc5n4Cc4ccc(F)cc4)CC3)(Cc3ccc(F)cc3)C2=O)cc(OC)c1OC` (stereo not shown) [Example 57, 1-(3,4,5-Trimethoxy-benzyl)-3-[2-[4-[1-(4-fluoro-benzyl)-1H-benzoimidazol-2-yl]-4-hydroxy-piperidin-1-yl]-ethyl]-3-(4-fluoro-phenylmethyl)-2-oxo-pyrrolidine]: the Kb at H1 receptor was 0.155 µM. Further, the IC50 on NK1 receptor is 0.114 µM.
Regarding `COc1cc(CN2CCC(CCN3CCC(O)(c4nc5ccccc5n4Cc4ccc(F)cc4)CC3)(Cc3ccc(F)cc3F)C2=O)cc(OC)c1OC` (stereo not shown) [Example 58, 1-(3,4,5-Trimethoxy-benzyl)-3-[2-[4-[1-(4-fluoro-benzyl)-1H-benzoimidazol-2-yl]-4-hydroxy-piperidin-1-yl]-ethyl]-3-(2,4-difluoro-phenylmethyl)-2-oxo-pyrrolidine], the Kb on H1 receptor is 0.151 µM. Moreover, on NK1 receptor, the 50% inhibitory concentration (IC50) came to 0.345 µM.
Consider `CC(C)Oc1cccc(CC(=O)N2CCCC(CCN3CCC(C(=O)c4nc5ccccc5n4Cc4ccc(F)cc4)CC3)(c3ccc(Cl)c(Cl)c3)C2)c1` (stereo not shown) [Example 63, 1-(3-Isopropoxy-phenyl-acetyl)-3-[2-[4-[1-(4-fluoro-benzyl)-1H-benzoimidazole-2-carbonyl]-piperidin-1-yl]-ethyl]-3-(3,4-dichloro-phenyl)-piperidine], for which the Kb at H1 receptor was 0.0794 µM. Besides, the IC50 at NK1 receptor is 0.279 µM.
The like results for `CCOCCn1c(C(=O)C2CCN(CCC3(c4ccc(Cl)c(Cl)c4)CCN(C(=O)c4cc(OC)c(OC)c(OC)c4)C3)CC2)nc2ccccc21` (stereo not shown) [Example 83, 1-(3,4,5-Trimethoxy-benzoyl)-3-[2-[4-[1-(2-ethoxy-ethyl)-1H-benzoimidazole-2-carbonyl]-piperidin-1-yl]-ethyl]-3-(3,4-dichloro-phenyl)-pyrrolidine] were, in that order, 0.105 µM and 0.031 µM.

For the origin of these results see patent publication US6329392A, “Substituted piperidines useful for the treatment of allergic diseases” (Aventis Pharmaceuticals, Inc., priority 1998, dated 2001).
